This series can be described thus: solubility trial of sensates in propylene glycol/glycerol mixture. Format: physicochemical. The conditions noted are these: PG:VG 70:30, sensate w/w % subtracted from PG (Symheat PV 1, WS-3 0.8, Ginger Extract 0.1 w/w %); one hour following addition of VG. The text has this: Formulations were produced containing propylene glycol (PG) and glycerol (VG) at a 70:30 ratio with the w/w % sensate addition subtracted from the w/w % of propylene glycol as is typical in the art.

Take `CCNC(=O)[C@@H]1C[C@H](C)CC[C@H]1C(C)C` (stereo in doubt) [WS-3, N-ethyl-5-methyl-2-propan-2-ylcyclohexane-1-carboxamide]: the Soluble entry is “✓”.

These data come from US20250098726A1, “AEROSOLISABLE MATERIAL” (Nicoventures Trading Limited, priority 2022, published 2025).
